What was measured:
Assay in all cases: Kinase panel
Assay type in all cases: biochemical
Settings in all cases: read-out: % Residual Activity
CDK12/cyclinK(h) = biological target: T1, CDK12/cyclinK(h) (Homo sapiens, UniProt Q9NYV4)
T1 construct: purchased Eurofins (KinaseProfiler)
Method: (§1) Kinome-wide selectivity of rilpivirine was measured using the kinase screening and profiling service of Eurofins Scientific (Le bois l’Evêque 86600. Celle-Lévescault, France) and Ki values were determined using radioisotope-based assays by Reaction Biology Corporation (Malvern, PA, USA). The experimental details of Eurofin Scientific and Reaction Biology services for relevant assays are available at https://www.eurofinsdiscoveryservices.com/services/in-Vitro-assays/kinases/kinase-profiler (accessed on 7 July 2021) and https://www.reactionbiology.com (accessed on 7 July 2021), respectively. Ki values were estimated from the corresponding IC50 values using the Cheng–Prusoff equation [21] and the Km (ATP) of individual kinase was used for IC50 determination.

IGF-1R(h) = biological target: T2, IGF-1R(h) (Homo sapiens, UniProt P08069)
T2 construct: purchased Eurofins (KinaseProfiler)
Method: as §1

MAP4K4(h) = biological target: T3, MAP4K4(h) (Homo sapiens, UniProt O95819)
T3 construct: purchased Eurofins (KinaseProfiler)
Method: as §1

NEK1(h) = biological target: T4, NEK1(h) (Homo sapiens, UniProt Q96PY6)
T4 construct: purchased Eurofins (KinaseProfiler)
Method: as §1

CaMKK1(h) = biological target: T5, CaMKK1(h) (Homo sapiens, UniProt Q8N5S9)
T5 construct: purchased Eurofins (KinaseProfiler)
T5 sequence (Q8N5S9 whole entry): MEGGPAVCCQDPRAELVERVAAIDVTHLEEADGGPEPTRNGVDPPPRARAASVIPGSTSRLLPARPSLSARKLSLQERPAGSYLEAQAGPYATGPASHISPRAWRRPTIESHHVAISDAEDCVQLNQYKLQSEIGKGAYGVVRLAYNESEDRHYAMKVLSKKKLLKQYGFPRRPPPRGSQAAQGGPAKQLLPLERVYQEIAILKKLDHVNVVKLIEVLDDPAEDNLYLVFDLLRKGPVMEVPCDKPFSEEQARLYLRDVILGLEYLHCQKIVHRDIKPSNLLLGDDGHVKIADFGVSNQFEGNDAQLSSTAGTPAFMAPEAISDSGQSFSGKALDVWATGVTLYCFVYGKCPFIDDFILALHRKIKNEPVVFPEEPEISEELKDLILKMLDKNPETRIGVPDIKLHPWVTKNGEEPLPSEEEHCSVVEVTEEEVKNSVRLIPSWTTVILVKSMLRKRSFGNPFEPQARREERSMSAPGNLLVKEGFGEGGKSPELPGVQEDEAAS
Method: as §1

DMPK(h) = biological target: T6, DMPK(h) (Homo sapiens, UniProt Q09013)
T6 construct: purchased Eurofins (KinaseProfiler)
Method: as §1

cKit(D816H)(h) = biological target: T7, cKit(D816H)(h) (Homo sapiens, UniProt P10721, D816H)
T7 construct: purchased Eurofins (KinaseProfiler)
Method: as §1

Abl(T315I)(h) = biological target: T8, Abl(T315I)(h) (Homo sapiens, UniProt P00519, T315I)
T8 construct: purchased Eurofins (KinaseProfiler)
Method: as §1

EphA5(h) = biological target: T9, EphA5(h) (Homo sapiens, UniProt P54756)
T9 construct: purchased Eurofins (KinaseProfiler)
Method: as §1

CaMKIγ(h) = biological target: T10, CaMKIγ(h) (Homo sapiens, UniProt Q96NX5)
T10 construct: purchased Eurofins (KinaseProfiler)
Method: as §1

NDR1(h) = biological target: T11, NDR1(h) (Homo sapiens, UniProt Q15208)
T11 construct: purchased Eurofins (KinaseProfiler)
Method: as §1

CK1γ1(h) = biological target: T12, CK1γ1(h) (Homo sapiens, UniProt Q9HCP0)
T12 construct: purchased Eurofins (KinaseProfiler)
Method: as §1

MELK(h) = biological target: T13, MELK(h) (Homo sapiens, UniProt Q14680)
T13 construct: purchased Eurofins (KinaseProfiler)
Method: as §1

Flt3(h) = biological target: T14, Flt3(h) (Homo sapiens, UniProt P36888)
T14 construct: purchased Eurofins (KinaseProfiler)
Method: as §1

DYRK1B(h) = biological target: T15, DYRK1B(h) (Homo sapiens, UniProt Q9Y463)
T15 construct: purchased Eurofins (KinaseProfiler)
Method: as §1

SAPK2b(h) = biological target: T16, SAPK2b(h) (Homo sapiens, UniProt Q15759)
T16 construct: purchased Eurofins (KinaseProfiler)
Method: as §1

eEF-2K(h) = biological target: T17, eEF-2K(h) (Homo sapiens, UniProt O00418)
T17 construct: purchased Eurofins (KinaseProfiler)
Method: as §1

Itk(h) = biological target: T18, Itk(h) (Homo sapiens, UniProt Q08881)
T18 construct: purchased Eurofins (KinaseProfiler)
Method: as §1

JAK1(h) = biological target: T19, JAK1(h) (Homo sapiens, UniProt P23458)
T19 construct: purchased Eurofins (KinaseProfiler)
Method: as §1

EphA8(h) = biological target: T20, EphA8(h) (Homo sapiens, UniProt P29322)
T20 construct: purchased Eurofins (KinaseProfiler)
T20 sequence (P29322 28-1005): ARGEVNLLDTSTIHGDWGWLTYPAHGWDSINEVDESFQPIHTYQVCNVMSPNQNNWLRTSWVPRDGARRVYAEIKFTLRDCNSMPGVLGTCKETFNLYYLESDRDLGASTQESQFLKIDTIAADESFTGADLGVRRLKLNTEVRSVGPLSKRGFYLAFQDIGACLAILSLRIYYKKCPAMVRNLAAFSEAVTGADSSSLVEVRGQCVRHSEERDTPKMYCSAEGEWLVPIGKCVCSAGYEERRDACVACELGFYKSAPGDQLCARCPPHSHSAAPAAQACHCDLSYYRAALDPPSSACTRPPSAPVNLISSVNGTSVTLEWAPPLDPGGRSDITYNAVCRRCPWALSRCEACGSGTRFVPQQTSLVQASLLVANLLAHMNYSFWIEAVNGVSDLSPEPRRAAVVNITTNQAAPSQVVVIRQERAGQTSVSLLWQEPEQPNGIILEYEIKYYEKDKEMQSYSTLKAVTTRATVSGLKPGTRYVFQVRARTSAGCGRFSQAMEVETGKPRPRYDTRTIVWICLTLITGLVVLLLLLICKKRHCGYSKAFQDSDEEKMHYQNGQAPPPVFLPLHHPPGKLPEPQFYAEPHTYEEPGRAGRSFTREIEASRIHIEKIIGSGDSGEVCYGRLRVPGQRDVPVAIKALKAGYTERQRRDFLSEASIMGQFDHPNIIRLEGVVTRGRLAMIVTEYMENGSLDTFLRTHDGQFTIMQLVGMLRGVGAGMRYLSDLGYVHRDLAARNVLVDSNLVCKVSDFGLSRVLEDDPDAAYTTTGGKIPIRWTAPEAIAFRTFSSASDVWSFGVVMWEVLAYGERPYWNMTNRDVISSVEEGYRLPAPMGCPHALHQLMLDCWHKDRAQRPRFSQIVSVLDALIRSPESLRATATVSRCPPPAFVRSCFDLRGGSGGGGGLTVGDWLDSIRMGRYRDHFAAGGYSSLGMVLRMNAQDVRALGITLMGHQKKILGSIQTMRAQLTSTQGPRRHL
Method: as §1

Met(D1246H)(h) = biological target: T21, Met(D1246H)(h) (Homo sapiens, UniProt P08581, D1228H)
T21 construct: purchased Eurofins (KinaseProfiler)
T21 sequence (P08581 956-1390 D1228H limits assumed): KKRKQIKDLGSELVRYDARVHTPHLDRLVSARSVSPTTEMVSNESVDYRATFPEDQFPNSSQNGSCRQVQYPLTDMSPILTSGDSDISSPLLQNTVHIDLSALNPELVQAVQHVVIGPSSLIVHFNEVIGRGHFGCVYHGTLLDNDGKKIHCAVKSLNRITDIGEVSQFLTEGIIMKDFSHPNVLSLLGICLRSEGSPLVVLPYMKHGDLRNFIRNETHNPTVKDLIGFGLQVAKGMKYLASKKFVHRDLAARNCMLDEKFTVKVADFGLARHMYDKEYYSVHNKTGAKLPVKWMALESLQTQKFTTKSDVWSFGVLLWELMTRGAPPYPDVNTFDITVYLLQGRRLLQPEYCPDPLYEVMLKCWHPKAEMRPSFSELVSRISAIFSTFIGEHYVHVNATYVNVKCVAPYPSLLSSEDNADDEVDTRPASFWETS
Method: as §1

SAPK3(h) = biological target: T22, SAPK3(h) (Homo sapiens, UniProt P53778)
T22 construct: purchased Eurofins (KinaseProfiler)
Method: as §1

PASK(h) = biological target: T23, PASK(h) (Homo sapiens, UniProt Q96RG2)
T23 construct: purchased Eurofins (KinaseProfiler)
T23 sequence (Q96RG2 whole entry): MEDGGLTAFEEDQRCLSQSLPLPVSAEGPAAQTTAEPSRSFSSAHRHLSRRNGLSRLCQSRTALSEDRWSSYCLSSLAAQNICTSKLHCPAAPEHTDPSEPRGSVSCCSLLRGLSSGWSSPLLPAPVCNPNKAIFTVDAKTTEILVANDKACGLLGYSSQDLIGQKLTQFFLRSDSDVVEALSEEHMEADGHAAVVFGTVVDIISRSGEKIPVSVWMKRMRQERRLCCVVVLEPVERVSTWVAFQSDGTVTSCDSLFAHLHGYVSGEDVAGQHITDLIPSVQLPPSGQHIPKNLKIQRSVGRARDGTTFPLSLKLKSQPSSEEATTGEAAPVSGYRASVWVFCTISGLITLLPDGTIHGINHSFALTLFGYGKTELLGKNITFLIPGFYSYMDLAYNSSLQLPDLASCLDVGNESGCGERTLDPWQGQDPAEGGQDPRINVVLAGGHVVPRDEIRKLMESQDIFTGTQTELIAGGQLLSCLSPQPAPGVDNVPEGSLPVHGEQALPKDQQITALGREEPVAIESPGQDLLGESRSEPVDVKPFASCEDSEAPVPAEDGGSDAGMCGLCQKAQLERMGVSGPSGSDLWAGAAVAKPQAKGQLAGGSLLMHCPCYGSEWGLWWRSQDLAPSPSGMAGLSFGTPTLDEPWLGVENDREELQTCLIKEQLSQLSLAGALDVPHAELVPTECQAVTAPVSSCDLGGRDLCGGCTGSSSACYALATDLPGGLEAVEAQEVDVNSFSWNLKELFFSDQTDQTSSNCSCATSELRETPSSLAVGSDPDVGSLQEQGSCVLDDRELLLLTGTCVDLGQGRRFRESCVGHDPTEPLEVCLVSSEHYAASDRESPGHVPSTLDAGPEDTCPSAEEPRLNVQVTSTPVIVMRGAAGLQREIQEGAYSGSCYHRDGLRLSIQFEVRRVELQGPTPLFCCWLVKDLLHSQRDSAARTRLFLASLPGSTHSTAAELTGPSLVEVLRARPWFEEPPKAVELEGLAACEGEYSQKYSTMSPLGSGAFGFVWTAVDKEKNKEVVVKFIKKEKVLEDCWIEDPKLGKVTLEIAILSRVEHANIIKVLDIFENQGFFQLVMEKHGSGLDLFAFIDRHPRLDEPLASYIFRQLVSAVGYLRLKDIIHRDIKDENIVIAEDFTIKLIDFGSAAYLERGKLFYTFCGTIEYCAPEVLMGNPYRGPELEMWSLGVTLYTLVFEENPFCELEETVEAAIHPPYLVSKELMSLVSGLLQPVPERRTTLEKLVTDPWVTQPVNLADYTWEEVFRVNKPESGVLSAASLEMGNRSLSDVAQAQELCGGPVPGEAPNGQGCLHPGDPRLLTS
Method: as §1

cKit(h) = biological target: T24, cKit(h) (Homo sapiens, UniProt P10721)
T24 construct: purchased Eurofins (KinaseProfiler)
Method: as §1

MLK2(h) = biological target: T25, MLK2(h) (Homo sapiens, UniProt Q02779)
T25 construct: purchased Eurofins (KinaseProfiler)
Method: as §1

CDKL1(h) = biological target: T26, CDKL1(h) (Homo sapiens, UniProt Q00532)
T26 construct: purchased Eurofins (KinaseProfiler)
Method: as §1

STK25(h) = biological target: T27, STK25(h) (Homo sapiens, UniProt O00506)
T27 construct: purchased Eurofins (KinaseProfiler)
Method: as §1

SGK2(h) = biological target: T28, SGK2(h) (Homo sapiens, UniProt Q9HBY8)
T28 construct: purchased Eurofins (KinaseProfiler)
Method: as §1

[1] = biological target: PI3 Kinase (p110b/p85a)(m) (Mus musculus, UniProt Q8BTI9)
Method: as §1

CRIK(h) = biological target: T29, CRIK(h) (Homo sapiens, UniProt O14578)
T29 construct: purchased Eurofins (KinaseProfiler)
Method: as §1

PKBγ(h) = biological target: T30, PKBγ(h) (Homo sapiens, UniProt Q9Y243)
T30 construct: purchased Eurofins (KinaseProfiler)
Method: as §1

A-Raf(h) = biological target: T31, A-Raf(h) (Homo sapiens, UniProt P10398)
T31 construct: purchased Eurofins (KinaseProfiler)
Method: as §1

B-Raf(h) = biological target: T32, B-Raf(h) (Homo sapiens, UniProt P15056)
T32 construct: purchased Eurofins (KinaseProfiler)
T32 sequence (P15056 whole entry): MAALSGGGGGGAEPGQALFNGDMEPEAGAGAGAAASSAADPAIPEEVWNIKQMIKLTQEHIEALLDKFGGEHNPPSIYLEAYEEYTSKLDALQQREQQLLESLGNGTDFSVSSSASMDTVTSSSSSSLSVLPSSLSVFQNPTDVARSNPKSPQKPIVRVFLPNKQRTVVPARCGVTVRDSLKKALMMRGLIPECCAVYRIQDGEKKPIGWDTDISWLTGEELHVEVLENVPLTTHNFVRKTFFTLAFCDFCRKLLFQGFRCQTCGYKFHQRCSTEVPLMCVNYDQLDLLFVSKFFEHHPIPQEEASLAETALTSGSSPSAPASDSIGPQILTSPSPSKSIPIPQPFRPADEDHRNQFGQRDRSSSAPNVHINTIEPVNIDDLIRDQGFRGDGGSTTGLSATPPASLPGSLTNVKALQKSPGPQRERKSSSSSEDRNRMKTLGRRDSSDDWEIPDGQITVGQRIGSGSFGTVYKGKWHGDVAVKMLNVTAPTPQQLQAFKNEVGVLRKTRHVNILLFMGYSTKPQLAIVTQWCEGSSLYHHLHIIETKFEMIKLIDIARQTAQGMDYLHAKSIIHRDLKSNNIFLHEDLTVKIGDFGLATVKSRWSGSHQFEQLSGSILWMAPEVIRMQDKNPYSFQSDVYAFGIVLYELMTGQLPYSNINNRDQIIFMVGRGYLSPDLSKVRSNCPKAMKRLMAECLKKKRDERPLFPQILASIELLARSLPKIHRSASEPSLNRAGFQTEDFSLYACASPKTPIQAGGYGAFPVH
Method: as §1

Fms(Y969C)(h) = biological target: T33, Fms(Y969C)(h) (Homo sapiens, UniProt P07333, Y969C)
T33 construct: purchased Eurofins (KinaseProfiler)
Method: as §1

MAK(h) = biological target: T34, MAK(h) (Homo sapiens, UniProt P20794)
T34 construct: purchased Eurofins (KinaseProfiler)
Method: as §1

PRK2(h) = biological target: T35, PRK2(h) (Homo sapiens, UniProt Q16513)
T35 construct: purchased Eurofins (KinaseProfiler)
Method: as §1

TrkA(h) = biological target: T36, TrkA(h) (Homo sapiens, UniProt P04629)
T36 construct: purchased Eurofins (KinaseProfiler)
T36 sequence (P04629 33-796): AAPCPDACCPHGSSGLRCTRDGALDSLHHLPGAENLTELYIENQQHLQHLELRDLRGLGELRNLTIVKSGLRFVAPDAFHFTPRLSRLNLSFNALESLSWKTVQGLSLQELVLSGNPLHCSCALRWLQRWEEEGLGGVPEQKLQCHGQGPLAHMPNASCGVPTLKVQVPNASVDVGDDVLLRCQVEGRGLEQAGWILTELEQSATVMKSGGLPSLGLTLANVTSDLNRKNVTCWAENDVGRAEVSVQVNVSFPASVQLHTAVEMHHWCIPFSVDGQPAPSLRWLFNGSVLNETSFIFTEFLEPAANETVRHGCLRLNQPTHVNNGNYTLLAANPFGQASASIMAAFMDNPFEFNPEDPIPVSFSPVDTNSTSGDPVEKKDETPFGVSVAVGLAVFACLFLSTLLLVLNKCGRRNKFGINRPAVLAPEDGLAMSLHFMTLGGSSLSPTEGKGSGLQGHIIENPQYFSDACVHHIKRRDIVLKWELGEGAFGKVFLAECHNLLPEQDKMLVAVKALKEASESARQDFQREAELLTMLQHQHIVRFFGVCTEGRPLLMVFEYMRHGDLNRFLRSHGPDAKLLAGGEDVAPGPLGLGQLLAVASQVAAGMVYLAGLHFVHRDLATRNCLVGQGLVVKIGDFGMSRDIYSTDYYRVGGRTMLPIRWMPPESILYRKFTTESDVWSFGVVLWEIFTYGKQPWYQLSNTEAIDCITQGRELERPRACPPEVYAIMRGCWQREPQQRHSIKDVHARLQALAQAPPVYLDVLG
Method: as §1

DDR2(h) = biological target: T37, DDR2(h) (Homo sapiens, UniProt Q16832)
T37 construct: purchased Eurofins (KinaseProfiler)
Method: as §1

Cc1cc(/C=C/C#N)cc(C)c1Nc1ccnc(Nc2ccc(C#N)cc2)n1 [rilpivirine, (E)-4-((4-((4-(2-cyanoethenyl)-2,6-dimethylphenyl)amino)pyrimidin-2-yl)amino)benzonitrile]
remaining activity at 1 µM (CDK12/cyclinK(h)): 85% | remaining activity at 1 µM (IGF-1R(h)): 89% | remaining activity at 1 µM (MAP4K4(h)): 79% | remaining activity at 1 µM (NEK1(h)): 86% | remaining activity at 1 µM (CaMKK1(h)): 90% | remaining activity at 1 µM (DMPK(h)): 100% | remaining activity at 1 µM (cKit(D816H)(h)): 89% | remaining activity at 1 µM (Abl(T315I)(h)): 93% | remaining activity at 1 µM (EphA5(h)): 79% | remaining activity at 1 µM (CaMKIγ(h)): 95% | remaining activity at 1 µM (NDR1(h)): 89% | remaining activity at 1 µM (CK1γ1(h)): 80% | remaining activity at 1 µM (MELK(h)): 56% | remaining activity at 1 µM (Flt3(h)): 123% | remaining activity at 1 µM (DYRK1B(h)): 72% | remaining activity at 1 µM (SAPK2b(h)): 98% | remaining activity at 1 µM (eEF-2K(h)): 92% | remaining activity at 1 µM (Itk(h)): 91% | remaining activity at 1 µM (JAK1(h)): 79% | remaining activity at 1 µM (EphA8(h)): 60% | remaining activity at 1 µM (Met(D1246H)(h)): 95% | remaining activity at 1 µM (SAPK3(h)): 106% | remaining activity at 1 µM (PASK(h)): 85% | remaining activity at 1 µM (cKit(h)): 99% | remaining activity at 1 µM (MLK2(h)): 85% | remaining activity at 1 µM (CDKL1(h)): 75% | remaining activity at 1 µM (STK25(h)): 95% | remaining activity at 1 µM (SGK2(h)): 97% | remaining activity at 1 µM [1]: 98% | remaining activity at 1 µM (CRIK(h)): 107% | remaining activity at 1 µM (PKBγ(h)): 86% | remaining activity at 1 µM (A-Raf(h)): 101% | remaining activity at 1 µM (B-Raf(h)): 80% | remaining activity at 1 µM (Fms(Y969C)(h)): 83% | remaining activity at 1 µM (MAK(h)): 84% | remaining activity at 1 µM (PRK2(h)): 74% | remaining activity at 1 µM (TrkA(h)): 101% | remaining activity at 1 µM (DDR2(h)): 82%

Source: PMC9954146, “Anti-Leukaemic Activity of Rilpivirine Is Mediated by Aurora A Kinase Inhibition” (Cancers, 2023)
